In PubChem BioAssay (NCI):
Where “and” joins values, the source holds several entries; their conditions need not be identical. Equal entries are not always repeated.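 A five-concentration, 48-hour dose response in 96-well plates underlies each endpoint, interpolated linearly between surrounding concentrations. GI50 is the concentration that inhibits growth by half. TGI: concentration producing complete growth inhibition.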

What was measured:
Experiment in all cases: NCI-60 cell line screen, 48 h
A498 renal = tested on: A498 renal
BT-549 breast = tested on: BT-549 breast
HS 578T breast = tested on: HS 578T breast
MCF7 breast = tested on: MCF7 breast
MOLT-4 leukemia = tested on: MOLT-4 leukemia
SNB-75 CNS = tested on: SNB-75 CNS
U251 CNS = tested on: U251 CNS
UO-31 renal = tested on: UO-31 renal

Row | Compound | GI50 (A498 renal) | TGI (A498 renal) | GI50 (BT-549 breast) | TGI (BT-549 breast) | GI50 (HS 578T breast) | TGI (HS 578T breast) | GI50 (MCF7 breast) | TGI (MCF7 breast) | GI50 (MOLT-4 leukemia) | TGI (MOLT-4 leukemia) [µM] | GI50 (SNB-75 CNS) | TGI (SNB-75 CNS) | GI50 (U251 CNS) | TGI (U251 CNS) | GI50 (UO-31 renal) | TGI (UO-31 renal)
1 | O=C(CNC(=O)c1cccc2ccccc12)Nc1ccccc1Oc1cccc(O)c1 | 5.11 µM | > 25 µM | > 25 µM | > 25 µM | 5.79 µM | > 25 µM | 4.51 µM | > 25 µM | 4.84 µM | > 25 | 3.3 µM | > 25 µM | 8.41 µM | > 25 µM | 16.5 µM | > 25 µM
2 | N#C/C(=C\c1cn(-c2ccccc2)c2ccccc12)C(=O)O | 13.4 µM | 35 µM | 36.6 µM | > 100 µM | 32.2 µM | > 100 µM | 27.4 µM | > 100 µM | 72.8 µM | > 100 | 31.4 µM | > 100 µM | 35 µM | > 100 µM | 23.8 µM | > 100 µM
3 | COc1ccc(C2=NNC(c3ccc(-c4ccc(OC)cc4[N+](=O)[O-])o3)C2)cc1 (stereo unspecified) | 31.6 µM | > 100 µM | 26.6 µM | 93.5 µM | 22.1 µM | 57.5 µM | 20 µM | > 100 µM | 31 µM | > 100 | 21.2 µM | 84.3 µM | 19.4 µM | 50.3 µM | > 100 µM | > 100 µM
4 | C=C1C(=O)O[C@H]2[C@H]1CC/C(COC(=O)NCCc1ccc(OC)cc1)=C\CC[C@@]1(C)O[C@@H]21 | 4.52 µM | 18.1 µM | 2.12 µM | 6.41 µM | 13.8 µM | 62.9 µM | 1.89 µM | 4.79 µM | 2.61 µM | 6.77 | 4.09 µM | 16.6 µM | 11.1 µM | 23.5 µM | 1.76 µM | 3.26 µM
5 | COc1cc(N2CCC(N(C)C)CC2)ccc1Nc1ncc(Cl)c(Nc2ccccc2P(C)(C)=O)n1 | 0.128 µM and 0.086 µM | 0.476 µM and 0.53 µM | 2.98 µM and 0.791 µM | 9.97 µM and 4.35 µM | 1.83 µM and 0.496 µM | 8.27 µM and 2.21 µM | 0.202 µM and 0.0522 µM | 21.6 µM and > 10 µM | 4.05 µM and 1.16 µM | > 100 | 1.07 µM and 0.228 µM | 2.69 µM and 0.82 µM | 1.42 µM and 0.713 µM | 9.94 µM and > 10 µM | 1.82 µM and 0.752 µM | 4.73 µM and 4.59 µM
6 | O=C(Nc1ccccc1Cl)c1cnc2ccc(C3CCNCC3)cn12 | 1.49 µM | > 45.5 µM | > 73.7 µM | > 100 µM | 0.292 µM | 2.92 µM | > 68.9 µM | > 100 µM | 55.9 µM | > 100 | 0.15 µM | 5.02 µM | 51.7 µM | > 100 µM | 2.13 µM | > 100 µM
7 | Nc1nc(-n2cccn2)nc(-n2cccn2)c1Br | 9.7 µM | 92.6 µM | > 100 µM | > 100 µM | > 100 µM | > 100 µM | > 100 µM | > 100 µM | > 100 µM | > 100 | 24.6 µM | > 100 µM | > 100 µM | > 100 µM | > 100 µM | > 100 µM
8 | COc1ccc(NC2=C(Sc3nc(C)cc(C)n3)C(=O)N(Cc3ccccc3)C2=O)cc1Cl | 62.1 µM | > 160 µM | 89.5 µM | > 160 µM | 67.9 µM | > 160 µM | 56.8 µM | > 160 µM | 14.4 µM | > 160 | 40.8 µM | > 160 µM | 55 µM | > 160 µM | > 160 µM | > 160 µM
9 | CC[C@@]1(O)C(=O)NCc2c1cc1n(c2=O)Cc2cc3cc4c(cc3nc2-1)OCO4 | 0.963 µM | 8.73 µM | 4.15 µM | > 100 µM | 94.1 µM | > 100 µM | 0.217 µM | > 100 µM | 0.118 µM | 0.414 | 0.5 µM | 3.57 µM | 0.408 µM | 12.9 µM | 1.48 µM | > 33.1 µM
10 | N#Cc1c(NC(=O)c2cccs2)[n+]([O-])c2ccccc2[n+]1[O-] | > 100 µM | > 100 µM | > 100 µM | > 100 µM | 95.9 µM | > 100 µM | > 100 µM | > 100 µM | > 100 µM | > 100 | 49.5 µM | > 100 µM | > 100 µM | > 100 µM | > 100 µM | > 100 µM
11 | O=C(O)CC(Cc1ccc2c(c1)OCO2)C(=O)O (stereo unspecified) | – | > 100 µM | – | > 100 µM | – | > 100 µM | – | > 100 µM | – | > 100 | – | > 100 µM | – | > 100 µM | – | > 100 µM
12 | Nc1cc(N)c2nc(-c3ccccc3)c(Nc3ccc(F)cc3)nc2c1 | 17.4 µM | 33.8 µM | 11.9 µM | 27.2 µM | 19.1 µM | 58.8 µM | 12.5 µM | > 100 µM | > 100 µM | > 100 | 20.8 µM | 41.9 µM | 5.65 µM | 20 µM | 16.9 µM | 61.4 µM
13 | CCN(CC)c1ccc(/C=N/NC(=O)c2ccc(Nc3ccnc(C(F)(F)F)c3)cc2)c(O)c1 | 0.479 µM | 10.6 µM | 0.38 µM | > 34.9 µM | 0.321 µM | 3.6 µM | 0.326 µM | > 100 µM | 0.117 µM | 1.38 | 0.152 µM | 3.41 µM | 0.145 µM | > 37.6 µM | 0.117 µM | 1.91 µM
14 | Cc1c(C(=O)/C=C/c2ccc(O)cc2)nnn1-c1ccnc2c(C(F)(F)F)cccc12 | 51 µM | > 100 µM | 60.2 µM | > 100 µM | 60.7 µM | > 100 µM | 23.5 µM | > 100 µM | 5.06 µM | 30.6 | 8.81 µM | 68.2 µM | 5.14 µM | 69.8 µM | 41.9 µM | > 100 µM
